Experimental data taken from ChEMBL document CHEMBL5131447, “Discovery of orexin 2 receptor selective and dual orexin receptor agonists based on the tetralin structure: Switching of receptor selectivity by chirality on the tetralin ring” (Bioorg Med Chem Lett, 2022).

Assays:
[1] = target: T1, Orexin/Hypocretin receptor type 1 (Homo sapiens, UniProt O43613); experiment: Agonist activity at OX1R (unknown origin); format: functional
T1 sequence (O43613 whole entry): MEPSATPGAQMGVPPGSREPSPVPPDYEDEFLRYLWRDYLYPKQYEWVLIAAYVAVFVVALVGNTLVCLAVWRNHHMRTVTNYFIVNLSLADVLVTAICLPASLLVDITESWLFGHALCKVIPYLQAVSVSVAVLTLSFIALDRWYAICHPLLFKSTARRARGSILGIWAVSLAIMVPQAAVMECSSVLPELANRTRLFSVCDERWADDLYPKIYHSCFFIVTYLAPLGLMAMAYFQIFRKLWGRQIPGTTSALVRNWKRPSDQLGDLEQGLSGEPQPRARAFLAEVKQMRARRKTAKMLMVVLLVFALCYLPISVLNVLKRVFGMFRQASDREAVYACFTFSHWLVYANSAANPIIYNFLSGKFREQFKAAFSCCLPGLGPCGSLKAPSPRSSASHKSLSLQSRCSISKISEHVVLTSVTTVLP

[2] = organism: Homo sapiens; experiment: Selectivity index, ratio of EC50 for agonist activity at OX1R (unknown origin) to EC50 for agonist activity at OX2R (unknown origin)
[3] = target: T2, Orexin receptor type 2 (Homo sapiens, UniProt O43614); experiment: Agonist activity at OX2R (unknown origin); format: functional
T2 sequence (O43614 whole entry): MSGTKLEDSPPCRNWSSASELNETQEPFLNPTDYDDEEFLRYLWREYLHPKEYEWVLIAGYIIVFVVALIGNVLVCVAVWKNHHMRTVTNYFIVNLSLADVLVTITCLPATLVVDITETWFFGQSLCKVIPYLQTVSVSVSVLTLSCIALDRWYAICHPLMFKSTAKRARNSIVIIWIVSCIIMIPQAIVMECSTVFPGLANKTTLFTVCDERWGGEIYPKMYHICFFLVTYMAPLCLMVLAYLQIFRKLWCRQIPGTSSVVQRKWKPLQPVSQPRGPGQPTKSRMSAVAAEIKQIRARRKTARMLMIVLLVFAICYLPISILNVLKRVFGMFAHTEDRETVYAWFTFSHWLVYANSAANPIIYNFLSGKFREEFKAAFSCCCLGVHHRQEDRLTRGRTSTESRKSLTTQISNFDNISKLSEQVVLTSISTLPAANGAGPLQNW

[4] = target: T3, Orexin/Hypocretin receptor type 1 (Homo sapiens) (UniProt O43613); experiment: Agonist activity at OX1R (unknown origin) assessed as maximum efficacy at 10 uM relative to control; format: functional
T3 sequence (whole entry): T1 sequence (O43613 whole entry)

[5] = target: T4, Orexin receptor type 2 (Homo sapiens) (UniProt O43614); experiment: Agonist activity at OX2R (unknown origin) assessed as maximum efficacy at 10 uM relative to control; format: functional
T4 sequence (whole entry): T2 sequence (O43614 whole entry)

| EC50 [1] [nM] | Ratio EC50 [2] | EC50 [3] [nM] | Emax ([4]; filed as agonist) [%] | Emax [4] [%] | Emax [5] [%] | Molecule |
| --- | --- | --- | --- | --- | --- | --- |
| 89 | 15.9 | 5.59 | – | – | – | COc1ccc(-c2cccc(C(=O)N(C)C)c2)cc1S(=O)(=O)Nc1ccc2c(c1)C(N(C)C(=O)Cc1cccc(N(C)C)c1)CCC2 (stereo not given) |
| 5780 | 14 | 413 | – | – | – | COc1cccc(CC(=O)OC2CCCc3ccc(NS(=O)(=O)c4cc(-c5cccc(C(=O)N(C)C)c5)ccc4OC)cc32)c1 (stereo not given) |
| > 10000 | – | 837 | 44.3 | – | – | COc1ccc(-c2cccc(C(=O)N(C)C)c2)cc1S(=O)(=O)Nc1ccc2c(c1)C(N(C)C(=O)C1CCCCC1)CCC2 (stereo not given) |
| 402 | 1.79 | 224 | – | – | – | COc1cccc(CC(=O)N(C)c2cccc3ccc(NS(=O)(=O)c4cc(-c5cccc(C(=O)N(C)C)c5)ccc4OC)cc23)c1 |
| > 10000 | – | 78.1 | – | 18.7 | – | COc1cccc(CC(=O)N(CC2CC2)C2CCCc3ccc(NS(=O)(=O)c4cc(-c5cccc(C(=O)N(C)C)c5)ccc4OC)cc32)c1 (stereo not given) |
| 5490 | – | > 10000 | – | – | 39.9 | COc1cccc(CC(=O)N(C)c2cccc3c2CC(NS(=O)(=O)c2cc(-c4cccc(C(=O)N(C)C)c4)ccc2OC)CC3)c1 (stereo not given) |
| 55.3 | 25.8 | 2.14 | – | – | – | CCOc1cccc(CC(=O)N(C)C2CCCc3ccc(NS(=O)(=O)c4cc(-c5cccc(C(=O)N(C)C)c5)ccc4OC)cc32)c1 (stereo not given) |
| > 10000 | – | 618 | – | 8.61 | – | COc1ccc(-c2cccc(C(=O)N(C)C)c2)cc1S(=O)(=O)Nc1ccc2c(c1)C(N(C)C(=O)c1ccccc1)CCC2 (stereo not given) |
| 1180 | 7.83 | 151 | – | – | – | COc1ccc(-c2cccc(C(=O)N(C)C)c2)cc1S(=O)(=O)Nc1ccc2c(c1)C(N(C)C(=O)Cc1cccnc1)CCC2 (stereo not given) |
| 3250 | – | – | – | – | – | COc1ccc(-c2cccc(C(=O)N(C)C)c2)cc1S(=O)(=O)Nc1ccc2c(c1)C(N(C)C(=O)Nc1ccccc1)CCC2 (stereo not given) |
| 287 | 87.8 | 3.27 | – | – | – | COc1ccc(CN(C)C2CCc3ccc(NS(=O)(=O)c4cc(-c5cccc(C(=O)N(C)C)c5)ccc4OC)cc32)cc1 (stereo not given) |
| 112 | 10.5 | 10.7 | – | – | – | COc1ccc(-c2cccc(C(=O)N(C)C)c2)cc1S(=O)(=O)Nc1ccc2c(c1)C(N(C)C(=O)Cc1ccccc1)CCC2 (stereo not given) |
| 30.7 | 20.3 | 1.51 | – | – | – | COc1cccc(CC(=O)N(C)C2CCCc3ccc(NS(=O)(=O)c4cc(-c5cccc(C(=O)N(C)C)c5)ccc4OC)cc32)c1 (racemic) |
| 713 | 12.5 | 57 | – | – | – | COc1ccc(-c2cccc(C(=O)N(C)C)c2)cc1S(=O)(=O)Nc1ccc2c(c1)C(N(C)C(=O)Cc1cccc(O)c1)CCC2 (stereo not given) |
| 4180 | 2.18 | 1920 | – | – | – | CCCCC(=O)N(C)C1CCCc2ccc(NS(=O)(=O)c3cc(-c4cccc(C(=O)N(C)C)c4)ccc3OC)cc21 (stereo not given) |
| 92.2 | 25.7 | 3.59 | – | – | – | COc1ccccc1CC(=O)N(C)C1CCCc2ccc(NS(=O)(=O)c3cc(-c4cccc(C(=O)N(C)C)c4)ccc3OC)cc21 (stereo not given) |
| 86.3 | 13.3 | 6.5 | – | – | – | COc1ccc(-c2cccc(C(=O)N(C)C)c2)cc1S(=O)(=O)Nc1ccc2c(c1)C(N(C)C(=O)Cc1cccc(F)c1)CCC2 (stereo not given) |
| 13.5 | 23.3 | 0.579 | – | – | – | COc1cccc(CC(=O)N(C)[C@@H]2CCCc3ccc(NS(=O)(=O)c4cc(-c5cccc(C(=O)N(C)C)c5)ccc4OC)cc32)c1 |
| – | 41.7 | – | – | – | – | H-MTLIGAAHNGSAQLLRQLRGQLGPPGSR-NH2 |
| 372 | 2.95 | 126 | – | – | – | COc1ccc(-c2cccc(C(=O)N(C)C)c2)cc1S(=O)(=O)Nc1ccc2c(c1)C(N(C)C(=O)CCc1ccccc1)CCC2 (stereo not given) |
| 120 | – | – | – | – | – | COc1ccc(CC(=O)N(C)C2CCCc3ccc(NS(=O)(=O)c4cc(-c5cccc(C(=O)N(C)C)c5)ccc4OC)cc32)cc1 (stereo not given) |
| 3920 | 89.6 | 43.7 | – | – | – | CCCN(C(=O)Cc1cccc(OC)c1)C1CCCc2ccc(NS(=O)(=O)c3cc(-c4cccc(C(=O)N(C)C)c4)ccc3OC)cc21 (stereo not given) |
| 229 | 8.61 | 26.6 | – | – | – | COc1cccc(CC(=O)NC2CCCc3ccc(NS(=O)(=O)c4cc(-c5cccc(C(=O)N(C)C)c5)ccc4OC)cc32)c1 (stereo not given) |
| 1240 | 461 | 2.69 | – | – | – | COc1cccc(CC(=O)N(C)[C@H]2CCCc3ccc(NS(=O)(=O)c4cc(-c5cccc(C(=O)N(C)C)c5)ccc4OC)cc32)c1 |
| 356 | 18.4 | 19.3 | – | – | – | CCN(C(=O)Cc1cccc(OC)c1)C1CCCc2ccc(NS(=O)(=O)c3cc(-c4cccc(C(=O)N(C)C)c4)ccc3OC)cc21 (stereo not given) |
| > 30000 | – | – | – | – | – | COC(=O)N1CCC[C@H](NS(C)(=O)=O)[C@@H]1CO[C@H]1CC[C@@H](c2ccccc2)CC1 [DANAVOREXTON] |
